This note sets out measurements from patent US20100119479A1, “THERAPEUTIC ANTIVIRAL PEPTIDES” (INTERMUNE, INC., priority 2008, published 2010).

Assay [1] has as its target T1, full-length NS3/NS4A-2 (HCV NS3 protease) (Hepatitis C virus genotype 1b, UniProt Q9WMX2).
T1 construct: Recombinant E. coli or Baculovirus full-length NS3; host or cells: E. coli or baculovirus (BV) expression
Put plainly: NS3 Inhibition Assay (NS3-NS4 protease assay, RETS1 substrate). Type of assay: biochemical. Conditions: NS3/NS4A-2 protease. In short, it runs like this: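 Full-length NS3 (E. coli 2 nM or baculovirus 3 nM) precomplexed with excess NS4A-2, preincubated 10 min at room temperature with compound (top 50 μM). Then 2 μM RETS1 FRET substrate added, fluorescence (ex 335/em 495 nm) read kinetically for 30 min. IC50 by 4-parameter fit, converted to Ki using Km 2.03 μM (E. coli) or 1.74 μM (BV).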

In assay [2] the test system is HCV sub-genomic replicon, GS4.3 (HuH-7 hepatoma cells). Put plainly: Quantitation by ELISA of NPTII in the HCV sub-genomic replicon, GS4.3. Type of assay: cell-based. To be noted: Hepatitis C virus, GS4.3 replicon cells, 72 h incubation. Put shortly:
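HuH-7 cells carrying the 1377/NS3-3′ subgenomic replicon were seeded 24 h ahead, then treated in G418-free medium with 3-fold dilutions from 10 μM (1% DMSO, duplicates) for 72 h at 37 °C, 5% CO2. NPTII in lysates was measured by ELISA (TMB, 450 nm). EC50 came from a 4-parameter fit of percent DMSO-control signal.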
(In general: ELISA stands for enzyme-linked immunosorbent assay.)

Usually IC50 stands for the midpoint of a concentration-inhibition curve. Low values mean inhibition by little substance, high ones a need for much substance. The term EC50 denotes the midpoint of the concentration-response curve. Read a low EC50 as a more potent agent.

Molecules are shown by their SMILES.

T1 sequence (Q9WMX2 1027-1657): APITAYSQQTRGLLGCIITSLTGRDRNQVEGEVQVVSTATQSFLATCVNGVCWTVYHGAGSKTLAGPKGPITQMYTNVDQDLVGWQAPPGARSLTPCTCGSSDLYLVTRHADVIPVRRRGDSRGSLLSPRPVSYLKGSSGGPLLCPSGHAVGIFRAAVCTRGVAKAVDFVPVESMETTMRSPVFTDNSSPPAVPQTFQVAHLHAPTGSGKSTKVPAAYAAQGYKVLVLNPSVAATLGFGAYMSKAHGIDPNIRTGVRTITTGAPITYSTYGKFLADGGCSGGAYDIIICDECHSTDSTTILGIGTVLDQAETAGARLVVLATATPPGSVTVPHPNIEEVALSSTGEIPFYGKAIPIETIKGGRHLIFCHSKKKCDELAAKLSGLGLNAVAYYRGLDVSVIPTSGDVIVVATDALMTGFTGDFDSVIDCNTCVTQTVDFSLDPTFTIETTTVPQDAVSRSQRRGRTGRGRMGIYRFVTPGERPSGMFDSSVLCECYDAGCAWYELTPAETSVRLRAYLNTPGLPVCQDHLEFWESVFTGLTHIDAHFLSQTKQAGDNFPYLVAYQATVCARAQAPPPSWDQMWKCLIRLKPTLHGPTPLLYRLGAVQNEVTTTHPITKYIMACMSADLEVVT
T1 sequence (Q9WMX2 1658-1711): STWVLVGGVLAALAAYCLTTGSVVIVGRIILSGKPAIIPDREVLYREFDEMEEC

Regarding `CC[C@@H]1C[C@]1(NC(=O)[C@@H]1C[C@@H](OC(=O)N2Cc3cccc(F)c3C2)CN1C(=O)[C@@H](Nc1cccc(COCC2(C)COC2)c1)C(C)(C)C)C(=O)NS(=O)(=O)C1CC1` [Compound 14], the IC50 in assay [1] was less than 100 nM. The compound further showed an EC50 in assay [2] of 100 to 1000 nM.
The compound `CC[C@@H]1C[C@]1(NC(=O)[C@@H]1C[C@@H](Oc2cc(-c3nc(C(C)C)cs3)nc3c(C)c(OC)ccc23)CN1C(=O)[C@@H](Nc1ccccc1[N+](=O)[O-])C(C)(C)C)C(=O)NS(=O)(=O)C1CC1` [Compound 350] had an IC50 in assay [1] greater than 1000 nM. Also, in assay [2], the EC50 is less than 100 nM.
On to `CC[C@@H]1CC1(NC(=O)[C@@H]1C[C@@H](OC(=O)N2Cc3cccc(Cl)c3C2)CN1C(=O)[C@@H](Nc1cccnc1)C(C)(C)C)C(=O)NS(=O)(=O)C1CC1` (some centres unmarked) [Compound 1], for which the IC50 in assay [1] is less than 100 nM. This compound yielded an EC50 in assay [2] of less than 100 nM.
Compound `CC[C@@H]1C[C@]1(NC(=O)[C@@H]1CC(Oc2cc(-c3nc(C(C)C)cs3)nc3c(C)c(OC)ccc23)CN1C(=O)[C@@H](Nc1cccc(C(F)(F)F)c1)C(C)(C)C)C(=O)NS(=O)(=O)C1(C)CC1` (some centres unmarked) [Compound 336] returned an IC50 in assay [1] of less than 100 nM. Further, in assay [2], the 50% effective concentration (EC50) was less than 100 nM.
In turn, `C=C[C@@H]1C[C@]1(NC(=O)[C@H]1Cc2cc(Oc3cccc(Cl)c3)ccc2CN1C(=O)[C@@H](Nc1cccc(C(F)(F)F)c1)C(C)(C)C)C(=O)NS(=O)(=O)C1(C)CC1` [Compound 22] returned an IC50 in assay [1] of less than 100 nM. Besides, the 50% effective concentration (EC50) in assay [2] was greater than 1000 nM.
The corresponding values for `CC[C@@H]1C[C@]1(NC(=O)[C@@H]1C[C@@H](OC(=O)N2Cc3cccc(F)c3C2)CN1C(=O)[C@@H](Nc1ccc(F)c(C#N)c1)C(C)(C)C)C(=O)NS(=O)(=O)C1CC1` [Compound 15] are less than 100 nM and 100 to 1000 nM.
Turning to `CC(C)(C)[C@H](Nc1cccc(C(F)(F)F)c1)C(=O)N1C[C@H](OC(=O)N2Cc3cccc(Cl)c3C2)C[C@H]1C(=O)N[C@]1(C(=O)NS(=O)(=O)C2CC2)C[C@H]1C1CC1` [Compound 293], the IC50 in assay [1] is less than 100 nM. The same compound displayed an EC50 in assay [2] of less than 100 nM.
`C=C[C@@H]1C[C@]1(NC(=O)[C@@H]1C[C@@H](Oc2cc(-c3nc(C(C)C)cs3)nc3c(C)c(OC)ccc23)CN1C(=O)[C@@H](Nc1cc(F)cc(C(F)(F)F)c1)C(C)(C)C)C(=O)NS(=O)(=O)C1(C)CC1` [Compound 334] returned an IC50 in assay [1] of less than 100 nM. This compound had an EC50 in assay [2] of less than 100 nM.
In assay [1], `CC[C@@H]1C[C@]1(NC(=O)[C@@H]1C[C@@H](Oc2cc(-c3ccccc3)nc3cc(OC)ccc23)CN1C(=O)[C@@H](Nc1cccc(C(F)(F)F)c1)C(C)(C)C)C(=O)NS(=O)(=O)C1(C)CC1` [Compound 230] yielded a half-inhibitory concentration (IC50) of less than 100 nM. This compound showed an EC50 in assay [2] of less than 100 nM.
Take `CC[C@@H]1C[C@]1(NC(=O)[C@@H]1C[C@@H](OC(=O)N2Cc3cccc(F)c3C2)CN1C(=O)[C@@H](Nc1ccc(C(=O)O)cc1)C(C)(C)C)C(=O)NS(=O)(=O)C1CC1` [Compound 3]: in assay [1], the IC50 was less than 100 nM. Also, the EC50 in assay [2] is greater than 1000 nM.
In the same order, the values of `C=C[C@@H]1C[C@]1(NC(=O)[C@@H]1C[C@@H](Oc2nccc3ccccc23)CN1C(=O)[C@@H](Nc1cc(F)cc(C(F)(F)F)c1)C(C)(C)C)C(=O)NS(=O)(=O)C1(C)CC1` [Compound 287] are less than 100 nM and less than 100 nM.
The corresponding values for `CC[C@@H]1C[C@]1(NC(=O)[C@@H]1C[C@@H](OC(=O)N2Cc3cccc(F)c3C2)CN1C(=O)[C@@H](Nc1ccc(C(=O)OC)cc1)C(C)(C)C)C(=O)NS(=O)(=O)C1CC1` [Compound 2] are less than 100 nM and 100 to 1000 nM.
`CC[C@@H]1C[C@]1(NC(=O)[C@@H]1C[C@@H](OC(=O)N2Cc3ccc(NC(=O)COCCOCCOC)cc3C2)CN1C(=O)[C@@H](Nc1cc(F)cc(C(F)(F)F)c1)C(C)(C)C)C(=O)NS(=O)(=O)C1CC1` [Compound 18] came in with an IC50 in assay [1] of 100 to 1000 nM. The same compound yielded an EC50 in assay [2] of 100 to 1000 nM.
Take `C=C[C@@H]1C[C@]1(NC(=O)[C@@H]1C[C@@H](Oc2cc(-c3nc(C(C)C)cs3)nc3c(C)c(OC)ccc23)CN1C(=O)[C@@H](Nc1ccccc1)C(C)(C)C)C(=O)NS(=O)(=O)C1CC1` [Compound 353]: the half-maximal inhibitory concentration (IC50) in assay [1] was less than 100 nM. For the same compound, the EC50 in assay [2] is less than 100 nM.
In assay [1], `C=C[C@@H]1C[C@]1(NC(=O)[C@@H]1C[C@@H](Oc2cc(-c3nc(C(C)C)cs3)nc3c(C)c(OC)ccc23)CN1C(=O)[C@@H](Nc1cccc(C(F)(F)F)c1)C(C)(C)C)C(=O)NS(=O)(=O)C1(C)CC1` [Compound 302] came in with an IC50 of less than 100 nM. Also, in assay [2], the concentration for a half-maximal effect (EC50) is less than 100 nM.
As for `CC[C@@H]1C[C@]1(NC(=O)[C@@H]1C[C@@H](Oc2cc(-c3nc(C(C)C)cs3)nc3c(C)c(OC)ccc23)CN1C(=O)[C@@H](Nc1cc(F)cc(C(F)(F)F)c1)C(C)(C)C)C(=O)NS(=O)(=O)C1CC1` [Compound 354], the IC50 in assay [1] is less than 100 nM. In assay [2], this compound gave an EC50 of less than 100 nM.
On to `CC(C)(C)[C@H](Nc1cccc(C(F)(F)F)c1)C(=O)N1C[C@H](OC(=O)N2Cc3cccc(Cl)c3C2)C[C@H]1C(=O)N[C@]1(C(=O)NS(=O)(=O)C2(C)CC2)C[C@H]1C1CC1` [Compound 303], for which the IC50 in assay [1] is less than 100 nM. In assay [2], this compound yielded an EC50 of less than 100 nM.
As for `CC[C@@H]1C[C@]1(NC(=O)[C@@H]1C[C@@H](Oc2cc(-c3nc(C(C)C)cs3)nc3c(C)c(OC)ccc23)CN1C(=O)[C@@H](Nc1cccc(C(F)(F)F)c1)C(C)(C)C)C(=O)NS(=O)(=O)N(C)C` [Compound 297], the IC50 in assay [1] was less than 100 nM. In assay [2], this compound registered an EC50 of less than 100 nM.
In assay [1], `CC(C)(C)[C@H](Nc1cccc(OC(F)(F)F)c1)C(=O)N1C[C@H](OC(=O)N2Cc3cccc(Cl)c3C2)C[C@H]1C(=O)N[C@]1(C(=O)NS(=O)(=O)C2(C)CC2)C[C@H]1C1CC1` [Compound 304] showed an IC50 of less than 100 nM. This compound also had an EC50 in assay [2] of less than 100 nM.
`C=C[C@@H]1C[C@]1(NC(=O)[C@@H]1C[C@@H](Oc2nccc3ccccc23)CN1C(=O)[C@@H](Nc1ccc(F)c(C(F)(F)F)c1)C(C)(C)C)C(=O)NS(=O)(=O)C1CC1` [Compound 6] displayed an IC50 in assay [1] of less than 100 nM. Also, the EC50 in assay [2] was less than 100 nM.
As to `CC[C@@H]1C[C@]1(NC(=O)[C@@H]1C[C@@H](OC(=O)N2Cc3cccc(Cl)c3C2)CN1C(=O)[C@@H](Nc1ccc(F)c(C(F)(F)F)c1)C(C)(C)C)C(=O)NS(=O)(=O)C1(C)CC1` [Compound 284], in assay [1], the IC50 is less than 100 nM. This compound also had an EC50 in assay [2] of less than 100 nM.
`C=C[C@@H]1C[C@]1(NC(=O)[C@@H]1C[C@@H](Oc2cc(-c3nc(C(C)C)cs3)nc3c(C)c(OC)ccc23)CN1C(=O)[C@@H](Nc1ccc(F)c(C(F)(F)F)c1)C(C)(C)C)C(=O)NS(=O)(=O)C1(C)CC1` [Compound 305] came in with an IC50 in assay [1] of less than 100 nM. In addition, the EC50 in assay [2] is less than 100 nM.
